Reference: US20250312474A1, “ANTHRACYCLINS AND CONJUGATES THEREOF” (priority 2022, published 2025)
Like-named read-outs stand apart in the source and are kept apart here.

Columns and labels:
[1] = tested on: NCI-N87 cells; assay: In vitro cytotoxicity of free payloads (resazurin cell viability, 3 days); format: cell-based; conditions: Homo sapiens, NCI-N87, 72 h, read-out: IC50 NCI-N87 (HER2 3+)
Experimental: SK-OV-3, NCI-N87, JIMT-1 and MDA-MB-231 cells were plated in 96-well plates (5000 cells/well) in RPMI-1640 GlutaMAX (Invitrogen) supplemented with 10% fetal bovine serum (FBS) (Invitrogen, 150 μL/well) and incubated overnight in a humidified atmosphere at 37° C. and 5% CO2. […] The cells were incubated for 3 days in a humidified atmosphere at 37° C. and 5% CO2. The culture medium was replaced by 0.01 mg/mL resazurin (Sigma Aldrich) in RPMI-1640 GlutaMAX supplemented with 10% FBS (200 μL/well). After 4 hours in a humidified atmosphere at 37° C. and 5% CO2 the fluorescence was detected with a fluorescence plate reader (Infinite® M1000 Tecan) at 560 nm excitation and 590 nm emission. The relative fluorescent units (RFU) were normalized to cell viability percentage by setting wells without cells at 0% viability and wells with untreated cells at 100% viability. Viability was plotted using Graphpad prism software (see FIG. 20).

[2] = tested on: JIMT-1 cells; assay: as above; format: cell-based, human; conditions: for IC50: Homo sapiens, JIMT-1, 72 h, read-out: IC50 JIMT-1 (HER2 1+); for IC50 JIMT-1 (HER2 1+): free payload, 3 days incubation, 10 pM to 100 nM
Experimental: (§1) SK-OV-3, NCI-N87, JIMT-1 and MDA-MB-231 cells were plated in 96-well plates (5000 cells/well) in RPMI-1640 GlutaMAX (Invitrogen) supplemented with 10% fetal bovine serum (FBS) (Invitrogen, 150 μL/well) and incubated overnight in a humidified atmosphere at 37° C. and 5% CO2. Compounds 6a, 6b, 6c, 6d and 6e were added in triplo in a square root of 10-fold dilution series to obtain a final concentration ranging from 1 pM to 10 nM (for SK-OV-3 and NCI-N87) or 10 pM to 100 nM (for JIMT-1 and MDA-MB-231) and a final volume of 200 μL/well. The cells were incubated for 3 days in a humidified atmosphere at 37° C. and 5% CO2. The culture medium was replaced by 0.01 mg/mL resazurin (Sigma Aldrich) in RPMI-1640 GlutaMAX supplemented with 10% FBS (200 μL/well). After 4 hours in a humidified atmosphere at 37° C. and 5% CO2 the fluorescence was detected with a fluorescence plate reader (Infinite® M1000 Tecan) at 560 nm excitation and 590 nm emission. The relative fluorescent units (RFU) were normalized to cell viability percentage by setting wells without cells at 0% viability and wells with untreated cells at 100% viability. Viability was plotted using Graphpad prism software (see FIG. 20).

[3] = tested on: MDA-MB-231 cells; assay: as above; format: cell-based; conditions: for IC50: Homo sapiens, MDA-MB-231, 72 h, read-out: IC50 MDA-MB-231 (HER2−); for IC50 MDA-MB-231 (HER2−): free payload, 3 days incubation, 10 pM to 100 nM
Experimental: as §1

[4] = tested on: SK-OV-3 cells; assay: as above; format: cell-based; conditions: Homo sapiens, SK-OV-3, 72 h, read-out: IC50 SK-OV-3 (HER2 3+)
Experimental: as §1

[5] = tested on: preclinical models; conditions: cited from earlier work
[6] = more potent than doxorubicin; cited from earlier work
[7] = free payload, 3 days incubation, 1 pM to 10 nM

SMILES	IC50 [1] [nM]	IC50 [2] [nM]	IC50 [3] [nM]	IC50 [4] [nM]	MED [5] [mg/kg]	potency relative to doxorubicin [6] [×]	IC50 [1, 7] [nM]	IC50 JIMT-1 (HER2 1+) [2]	IC50 MDA-MB-231 (HER2−) [3]	IC50 [4, 7] [nM]
COc1cccc2c1C(=O)c1c(O)c3c(c(O)c1C2=O)C[C@@](O)(C(=O)CO)C[C@@H]3O[C@H]1C[C@H]2[C@H](O[C@@H]3[C@@H](OC(C)C)OCCN32)[C@H](C)O1 [Compound 6c]	0.416	0.159	0.174	0.187	–	–	–	–	–	–
COc1cccc2c1C(=O)c1c(O)c3c(c(O)c1C2=O)C[C@@](O)(C(=O)CO)C[C@@H]3O[C@H]1C[C@H]2[C@H](O[C@@H]3[C@@H](OC)OCCN32)[C@H](C)O1 [PNU-159,682]	–	–	–	–	0.033	> 1000	–	–	–	–
COc1cccc2c1C(=O)c1c(O)c3c(c(O)c1C2=O)C[C@@](O)(C(=O)CO)C[C@@H]3O[C@H]1C[C@H]2[C@H](O[C@@H]3[C@@H](OC)OCCN32)[C@H](C)O1 [Compound 6a, reference compound]	–	–	–	–	–	–	0.085	no accurate IC50 value could be calculated	no accurate IC50 value could be calculated	0.028
COc1cccc2c1C(=O)c1c(O)c3c(c(O)c1C2=O)C[C@@](O)(C(=O)CO)C[C@@H]3O[C@H]1C[C@H]2[C@H](O[C@@H]3[C@@H](OCc4ccc(N=[N+]=[N-])cc4)OCCN32)[C@H](C)O1 [Compound 6e]	0.795	0.52	0.705	0.845	–	–	–	–	–	–
COc1cccc2c1C(=O)c1c(O)c3c(c(O)c1C2=O)C[C@@](O)(C(=O)CO)C[C@@H]3O[C@H]1C[C@H]2[C@H](O[C@@H]3[C@@H](OCc4ccccc4)OCCN32)[C@H](C)O1 [Compound 6d]	0.339	0.259	0.169	0.217	–	–	–	–	–	–
COc1cccc2c1C(=O)c1c(O)c3c(c(O)c1C2=O)C[C@@](O)(C(=O)CO)C[C@@H]3O[C@H]1C[C@H]2[C@H](O[C@@H]3[C@@H](OCCN=[N+]=[N-])OCCN32)[C@H](C)O1 [Compound 6b]	–	–	–	0.099	–	–	–	no accurate IC50 value could be calculated	no accurate IC50 value could be calculated	–
